Data published in PubChem BioAssay (NCI).
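Compound exposure: 48 hours, 5 concentrations, 96-well plates. TGI denotes the concentration required for complete inhibition of growth.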

Tests used:
Test in all cases: NCI tumour cell line growth inhibition, 48 h
[1] = test system: 786-0 renal
[2] = test system: A498 renal
[3] = test system: A549 NSCLC
[4] = test system: ACHN renal
[5] = test system: BT-549 breast
[6] = test system: CCRF-CEM leukemia
[7] = test system: COLO 205 colon
[8] = test system: DU-145 prostate
[9] = test system: EKVX NSCLC
[10] = test system: HCC-2998 colon
[11] = test system: HCT-116 colon
[12] = test system: HCT-15 colon
[13] = test system: HL-60(TB) leukemia
[14] = test system: HOP-62 NSCLC
[15] = test system: HOP-92 NSCLC
[16] = test system: HS 578T breast
[17] = test system: HT29 colon
[18] = test system: IGROV1 ovarian
[19] = test system: K-562 leukemia
[20] = test system: KM12 colon
[21] = test system: LOX IMVI melanoma
[22] = test system: M14 melanoma
[23] = test system: MALME-3M melanoma
[24] = test system: MCF7 breast
[25] = test system: MDA-MB-231 breast
[26] = test system: MDA-MB-435
[27] = test system: MDA-N
[28] = test system: MOLT-4 leukemia
[29] = test system: NCI-H226 lung
[30] = test system: NCI-H23 lung
[31] = test system: NCI-H460 lung
[32] = test system: NCI/ADR-RES ovarian
[33] = test system: OVCAR-3 ovarian
[34] = test system: OVCAR-4 ovarian
[35] = test system: OVCAR-5 ovarian
[36] = test system: PC-3 prostate
[37] = test system: RPMI-8226 leukemia
[38] = test system: RXF 393 renal
[39] = test system: SF-268 CNS
[40] = test system: SF-539 CNS
[41] = test system: SK-MEL-2 melanoma
[42] = test system: SK-MEL-28 melanoma
[43] = test system: SK-MEL-5 melanoma
[44] = test system: SK-OV-3 ovarian
[45] = test system: SN12C renal
[46] = test system: SNB-19 CNS
[47] = test system: SR leukemia
[48] = test system: SW-620 colon
[49] = test system: T-47D breast
[50] = test system: TK-10 renal
[51] = test system: U251 CNS
[52] = test system: UACC-257 melanoma
[53] = test system: UACC-62 melanoma
[54] = test system: UO-31 renal
[55] = test system: CAKI-1 renal
[56] = test system: DLD-1 colon
[57] = test system: DMS 114 small cell lung
[58] = test system: DMS 273 small cell lung
[59] = test system: HOP-18 NSCLC
[60] = test system: KM20L2 colon
[61] = test system: LXFL 529 NSCLC
[62] = test system: M19-MEL melanoma
[63] = test system: NCI-H522 lung
[64] = test system: OVCAR-8 ovarian
[65] = test system: SF-295 CNS
[66] = test system: SNB-75 CNS
[67] = test system: SNB-78 CNS
[68] = test system: XF 498 CNS

Work on Clc1ccc(/C=C/c2nc(-c3ccc(Cl)cc3)cn3c2nc2ccccc23)cc1 yielded a TGI [1] greater than 100 µM, a TGI [2] greater than 100 µM and a TGI [3] greater than 100 µM. For the same molecule, the TGI [4] was greater than 100 µM, the TGI [5] was greater than 100 µM and the TGI [6] was greater than 100 µM. For the same molecule, the TGI [7] was greater than 100 µM, the TGI [8] was greater than 100 µM and the TGI [9] was greater than 100 µM. The TGI [10] was greater than 100 µM, the TGI [11] was greater than 100 µM and the TGI [12] was greater than 100 µM. For the same molecule, the TGI [13] was greater than 100 µM, the TGI [14] was greater than 100 µM and the TGI [15] was greater than 100 µM. It also gave a TGI [16] greater than 100 µM, a TGI [17] greater than 100 µM and a TGI [18] greater than 100 µM. For the same molecule, the TGI [19] was greater than 100 µM, the TGI [20] was greater than 100 µM and the TGI [21] was greater than 100 µM. For the same molecule, the TGI [22] was greater than 100 µM, the TGI [23] was greater than 100 µM and the TGI [24] was greater than 100 µM. For the same molecule, the TGI [25] was greater than 100 µM, the TGI [26] was greater than 100 µM and the TGI [27] was greater than 100 µM. For the same molecule, the TGI [28] was greater than 100 µM, the TGI [29] was greater than 100 µM and the TGI [30] was greater than 100 µM. It also gave a TGI [31] greater than 100 µM, a TGI [32] greater than 100 µM and a TGI [33] greater than 100 µM. The TGI [34] was greater than 100 µM, the TGI [35] was greater than 100 µM and the TGI [36] was greater than 100 µM. The TGI [37] was greater than 100 µM, the TGI [38] was greater than 100 µM and the TGI [39] was greater than 100 µM. It also gave a TGI [40] greater than 100 µM, a TGI [41] greater than 100 µM and a TGI [42] greater than 100 µM. For the same molecule, the TGI [43] was greater than 100 µM, the TGI [44] was greater than 100 µM and the TGI [45] was greater than 100 µM. It also gave a TGI [46] greater than 100 µM, a TGI [47] greater than 100 µM and a TGI [48] greater than 100 µM. For the same molecule, the TGI [49] was greater than 100 µM, the TGI [50] was greater than 100 µM and the TGI [51] was greater than 100 µM. The TGI [52] was greater than 100 µM, the TGI [53] was greater than 100 µM and the TGI [54] was greater than 100 µM.
Molecule CC(C)(C)C1CCC(CI)(N=[N+]=[N-])CC1 (centres undefined) has a TGI [1] greater than 100 µM, a TGI [2] greater than 100 µM and a TGI [3] greater than 100 µM. The TGI [4] was greater than 100 µM, the TGI [55] was greater than 100 µM and the TGI [6] was greater than 100 µM. The TGI [7] was greater than 100 µM, the TGI [56] was greater than 100 µM and the TGI [57] was greater than 100 µM. It also gave a TGI [58] greater than 100 µM, a TGI [9] greater than 100 µM and a TGI [10] greater than 100 µM. For the same molecule, the TGI [11] was greater than 100 µM, the TGI [12] was greater than 100 µM and the TGI [13] was greater than 100 µM. For the same molecule, the TGI [59] was greater than 100 µM, the TGI [14] was greater than 100 µM and the TGI [15] was greater than 100 µM. The TGI [17] was greater than 100 µM, the TGI [18] was greater than 100 µM and the TGI [19] was greater than 100 µM. It also gave a TGI [20] greater than 100 µM, a TGI [60] greater than 100 µM and a TGI [61] greater than 100 µM. For the same molecule, the TGI [22] was greater than 100 µM, the TGI [62] was greater than 100 µM and the TGI [23] was greater than 100 µM. It also gave a TGI [28] greater than 100 µM, a TGI [29] greater than 100 µM and a TGI [30] greater than 100 µM. The TGI [31] was greater than 100 µM, the TGI [63] was greater than 100 µM and the TGI [33] was greater than 100 µM. The TGI [34] was greater than 100 µM, the TGI [35] was greater than 100 µM and the TGI [64] was greater than 100 µM. The TGI [37] was greater than 100 µM, the TGI [38] was greater than 100 µM and the TGI [39] was greater than 100 µM. It also gave a TGI [65] greater than 100 µM, a TGI [40] greater than 100 µM and a TGI [41] greater than 100 µM. It also gave a TGI [43] greater than 100 µM, a TGI [44] greater than 100 µM and a TGI [45] greater than 100 µM. It also gave a TGI [46] greater than 100 µM, a TGI [66] greater than 100 µM and a TGI [67] greater than 100 µM. It also gave a TGI [47] greater than 100 µM, a TGI [48] greater than 100 µM and a TGI [50] greater than 100 µM. It also gave a TGI [51] greater than 100 µM, a TGI [52] greater than 100 µM and a TGI [53] greater than 100 µM. The TGI [54] was greater than 100 µM and the TGI [68] was greater than 100 µM.
With [O-]/N=N\c1on[n+](CCc2ccccc2)c1Cc1c(/N=N/[O-])on[n+]1CCc1ccccc1 the TGI [1] was 47.5 µM, the TGI [2] was greater than 100 µM and the TGI [3] was greater than 100 µM. The TGI [4] was greater than 100 µM, the TGI [5] was 78.1 µM and the TGI [55] was greater than 100 µM. The TGI [6] was greater than 100 µM, the TGI [7] was greater than 100 µM and the TGI [8] was greater than 100 µM. For the same molecule, the TGI [9] was greater than 100 µM, the TGI [10] was greater than 100 µM and the TGI [11] was greater than 100 µM. The TGI [12] was greater than 100 µM, the TGI [13] was greater than 100 µM and the TGI [14] was 48.3 µM. The TGI [15] was 65.8 µM, the TGI [16] was 62.2 µM and the TGI [17] was greater than 100 µM. It also gave a TGI [18] of 70 µM, a TGI [19] of 65 µM and a TGI [20] greater than 100 µM. It also gave a TGI [21] greater than 100 µM, a TGI [22] greater than 100 µM and a TGI [23] of 66.6 µM. For the same molecule, the TGI [24] was greater than 100 µM, the TGI [25] was 88.6 µM and the TGI [26] was greater than 100 µM. It also gave a TGI [27] greater than 100 µM, a TGI [28] greater than 100 µM and a TGI [29] of 98.3 µM. For the same molecule, the TGI [30] was 61.3 µM, the TGI [31] was greater than 100 µM and the TGI [63] was 43.8 µM. The TGI [32] was greater than 100 µM, the TGI [33] was 39.8 µM and the TGI [34] was 36.7 µM. It also gave a TGI [35] greater than 100 µM, a TGI [64] of 46.4 µM and a TGI [36] greater than 100 µM. The TGI [37] was greater than 100 µM, the TGI [38] was greater than 100 µM and the TGI [39] was greater than 100 µM. The TGI [65] was 74.2 µM, the TGI [40] was 37.1 µM and the TGI [41] was 94 µM. It also gave a TGI [42] greater than 100 µM, a TGI [43] of 88 µM and a TGI [44] greater than 100 µM. For the same molecule, the TGI [45] was greater than 100 µM, the TGI [46] was 93.2 µM and the TGI [66] was 40.2 µM. It also gave a TGI [47] greater than 100 µM, a TGI [48] greater than 100 µM and a TGI [49] greater than 100 µM. It also gave a TGI [50] of 56.2 µM, a TGI [51] of 52.7 µM and a TGI [52] greater than 100 µM. The TGI [53] was greater than 100 µM and the TGI [54] was greater than 100 µM.
